# Test results as given in ChEMBL document CHEMBL3638542, “Imidazo[1,2-a]pyridine derivatives: preparation and pharmaceutical applications” (2014).
# Target: Histone deacetylase 1 (Homo sapiens, UniProt Q13547)
# Assay: BIOMOL Fluorescent-Based Assay: The assay has been carried out in 96 well format and the BIOMOL fluorescent-based HDAC activity assay has been applied. The reaction composed of assay buffer, containing 25 mM Tris pH 7.5, 137 mM NaCl, 2.7 mM KCl, 1 mM MgCl2, 1 mg/ml BSA, tested compounds, an appropriate concentration of HDAC1 enzyme, 500 uM Flur de lys generic substrate for HDAC1 enzyme and subsequently was incubated at room temperature for 2 h. Flur de lys Developer was added and the reaction was incubated for 10 min. Briefly, deacetylation of the substrate sensitizes it to the developer, which then generates a fluorophore. The fluorophore is excited with 360 nm light and the emitted light (460 nm) is detected on a fluorometric plate reader (Tecan Ultra Microplate detection system, Tecan Group Ltd.).
# Sequence of Histone deacetylase 1 (Q13547 whole entry): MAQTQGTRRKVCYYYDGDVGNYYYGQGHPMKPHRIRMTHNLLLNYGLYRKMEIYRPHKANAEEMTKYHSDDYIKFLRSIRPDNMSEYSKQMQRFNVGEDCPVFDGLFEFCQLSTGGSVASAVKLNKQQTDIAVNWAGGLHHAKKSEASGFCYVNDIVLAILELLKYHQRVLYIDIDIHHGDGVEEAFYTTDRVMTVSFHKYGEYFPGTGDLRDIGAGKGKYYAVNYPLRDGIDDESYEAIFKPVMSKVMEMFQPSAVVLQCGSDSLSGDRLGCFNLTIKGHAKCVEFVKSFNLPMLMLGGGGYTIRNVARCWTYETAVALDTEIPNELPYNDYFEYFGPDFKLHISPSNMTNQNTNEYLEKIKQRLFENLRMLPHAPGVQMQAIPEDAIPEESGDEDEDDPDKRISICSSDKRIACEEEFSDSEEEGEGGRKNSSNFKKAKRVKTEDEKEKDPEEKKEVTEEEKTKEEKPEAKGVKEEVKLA
row,Structure (SMILES),IC50
1,COCCNc1c(CCC(=O)O)nc2ccc(/C=C/C(=O)NO)cn12,320 nM
2,CC(C)(C)Nc1c(C(=O)O)nc2ccc(/C=C/C(=O)NO)cn12,> 10000 nM
3,CCCCCCc1nc2cc(/C=C/C(=O)NO)ccn2c1NCCC(=O)N(C)CC#N,> 10000 nM
4,CCCCc1nc2cc(/C=C/C(=O)NO)ccn2c1CN(CC)CC(C)CCC (centres undefined),60 nM
